Measurements reported in patent US9353082B2, “Pharmaceutical compounds” (BIAL—PORTELA & CA, S.A., priority 2008, dated 2016).

Target: T1, FAAH (Rattus norvegicus, UniProt P97612)
T1 construct: Frozen brains (without cerebellum) from Wistar rats were used; from tissue; host or cells: Wistar rat brain (without cerebellum), washed membrane pellets
T1 sequence (P97612 1-579): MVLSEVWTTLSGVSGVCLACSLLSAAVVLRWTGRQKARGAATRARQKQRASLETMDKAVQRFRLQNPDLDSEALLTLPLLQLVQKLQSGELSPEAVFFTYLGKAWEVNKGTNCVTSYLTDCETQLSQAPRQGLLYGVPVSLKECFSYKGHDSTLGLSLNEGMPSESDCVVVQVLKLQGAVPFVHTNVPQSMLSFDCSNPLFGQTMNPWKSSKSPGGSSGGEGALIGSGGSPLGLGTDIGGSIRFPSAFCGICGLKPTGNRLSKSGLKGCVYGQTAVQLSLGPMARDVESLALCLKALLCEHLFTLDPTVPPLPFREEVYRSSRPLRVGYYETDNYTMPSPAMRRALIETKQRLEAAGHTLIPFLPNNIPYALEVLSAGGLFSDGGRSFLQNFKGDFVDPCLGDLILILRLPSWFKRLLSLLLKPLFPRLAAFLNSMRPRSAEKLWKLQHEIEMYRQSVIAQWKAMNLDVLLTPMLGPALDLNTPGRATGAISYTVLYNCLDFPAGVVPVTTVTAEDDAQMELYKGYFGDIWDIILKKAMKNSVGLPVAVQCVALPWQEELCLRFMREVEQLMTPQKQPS
Assay: In vitro FAAH activity in rat brain membranes, 3H-AEA substrate, % of control
Type: biochemical, Wistar rats
Conditions: 100 nM test compound, low value = strong inhibitor
Procedure, shortened: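 Wistar rat brain membranes (5 μg protein) preincubated 15 min at 37 °C with compound at 10 μM or 0.1 μM (0.1% DMSO), then 2 μM AEA including 3H-AEA with 0.1% BSA, Tris pH 7.6, 10 min. 3H-ethanolamine counted after charcoal stop; % of no-compound control after blank subtraction.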

SMILES	In Vitro FAAH activity, 100 nM
CN(C(=O)n1cnc(-c2cccs2)n1)c1ccccc1 [Compound 180, N-methyl-N-phenyl-3-(thiophen-2-yl)-1H-1,2,4-triazole-1-carboxamide]	57.5 % of control
CN(Cc1ccccc1)C(=O)n1cnc(-c2cccs2)n1 [Compound 181, N-benzyl-N-methyl-3-(thiophen-2-yl)-1H-1,2,4-triazole-1-carboxamide]	0.9 % of control
O=C(N1CCc2ccccc2C1)n1cnc(-c2ccccc2)c1 [Compound 184, (3,4-dihydroisoquinolin-2(1H)-yl)(4-phenyl-1H-imidazol-1-yl)methanone]	30.2 % of control
O=C(N1CCc2ccccc2C1)n1cnc(-c2ccc(Cl)cc2)n1 [Compound 185, (3-(4-chlorophenyl)-1H-1,2,4-triazol-1-yl)(3,4-dihydroisoquinolin-2(1H)-yl)methanone]	71.8 % of control
CN(Cc1ccccc1)C(=O)n1cnc(-c2ccc3ccccc3c2)n1 [Compound 190, N-benzyl-N-methyl-3-(naphthalen-2-yl)-1H-1,2,4-triazole-1-carboxamide]	20.7 % of control
CN(C(=O)n1cnc(-c2cccc3ccccc23)n1)c1ccccc1 [Compound 192, N-methyl-3-(naphthalen-1-yl)-N-phenyl-1H-1,2,4-triazole-1-carboxamide]	64.6 % of control
C[C@@H]1CN(C(=O)n2nnc3ccccc32)C[C@@H](C)O1 [Compound 193, (1H-benzo[d][1,2,3]triazol-1-yl)((2R,6R)-2,6-dimethylmorpholino)methanone]	110.2 % of control
C[C@@H]1CN(C(=O)n2nnc3ccccc32)C[C@H](C)O1 [Compound 194, (1H-benzo[d][1,2,3]triazol-1-yl)((2S,6R)-2,6-dimethylmorpholino)methanone]	64.2 % of control
O=C(N1CCC(CCCc2ccccc2)CC1)n1cnc(-c2ccc(Cl)cc2)c1 [Compound 197, (4-(4-chlorophenyl)-1H-imidazol-1-yl)(4-(3-phenylpropyl)piperidin-1-yl)methanone]	0.3 % of control
O=C(N1CCC2(CC1)OCCO2)n1cnc(-c2ccc(Cl)c(Cl)c2)c1 [Compound 198, (4-(3,4-dichlorophenyl)-1H-imidazol-1-yl)(1,4-dioxa-8-azaspiro[4.5]decan-8-yl)methanone]	33 % of control
CN(C(=O)n1cnc(-c2cccc(OCCN3CCNCC3)c2)c1)c1ccccc1.Cl.Cl [Compound 200, N-methyl-N-phenyl-4-(3-(2-(piperazin-1-yl)ethoxy)phenyl)-1H-imidazole-1-carboxamide dihydrochloride]	100.1 % of control
O=C(N1CCN(C2CCCCC2)CC1)n1cnc(-c2ccc(F)c(F)c2)c1 [Compound 201, (4-cyclohexylpiperazin-1-yl)(4-(3,4-difluorophenyl)-1H-imidazol-1-yl)methanone]	0.3 % of control
CCN(CCOCc1ccccc1)C(=O)n1nnc2ccccc21 [Compound 202, N-(2-(benzyloxy)ethyl)-N-ethyl-1H-benzo[d][1,2,3]triazole-1-carboxamide]	0.1 % of control
O=C(N1CCC2(CC1)OCCO2)n1cnc(-c2ccc(Cl)cc2)n1 [Compound 204, (3-(4-chlorophenyl)-1H-1,2,4-triazol-1-yl)(1,4-dioxa-8-azaspiro[4.5]decan-8-yl)methanone]	15.8 % of control
COc1ccc(-c2ncn(C(=O)N3CCC(CCCc4ccccc4)CC3)n2)cc1 [Compound 205, (3-(4-methoxyphenyl)-1H-1,2,4-triazol-1-yl)(4-(3-phenylpropyl)piperidin-1-yl)methanone]	0.2 % of control
O=C(N1CCN(c2ccccc2)CC1)n1cnc(-c2cccc3ccccc23)n1 [Compound 206, (3-(naphthalen-1-yl)-1H-1,2,4-triazol-1-yl)(4-phenylpiperazin-1-yl)methanone]	3.3 % of control
NC(=O)c1ccc(Oc2cccc(-c3ncn(C(=O)N4CCc5ccccc5C4)n3)c2)cc1 [Compound 207, 4-(3-(1-(1,2,3,4-tetrahydroisoquinoline-2-carbonyl)-1H-1,2,4-triazol-3-yl)phenoxy)benzamide]	31.6 % of control
NC(=O)c1ccc(Oc2cccc(-c3ncn(C(=O)N4CCOCC4)n3)c2)cc1 [Compound 210, 4-(3-(1-(morpholine-4-carbonyl)-1H-1,2,4-triazol-3-yl)phenoxy)benzamide]	73.3 % of control

SMILES	In Vitro FAAH activity, 100 nM
COc1ccc(-c2ncn(C(=O)N3CCN(c4ccc(F)cc4)CC3)n2)cc1 [Compound 211, (4-(4-fluorophenyl)piperazin-1-yl)(3-(4-methoxyphenyl)-1H-1,2,4-triazol-1-yl)methanone]	1.9 % of control
Cl.O=C(N1CCN(C2CCCCC2)CC1)n1cnc(-c2ccc(Cl)cc2)n1 [Compound 212, (3-(4-chlorophenyl)-1H-1,2,4-triazol-1-yl)(4-cyclohexylpiperazin-1-yl)methanone hydrochloride]	0.8 % of control
O=C(N1CCSC1)n1cnc(-c2ccc(Cl)cc2)n1 [Compound 214, (3-(4-chlorophenyl)-1H-1,2,4-triazol-1-yl)(thiazolidin-3-yl)methanone]	23.7 % of control
O=C(N1CCSC1)n1cnc(-c2ccc(F)c(F)c2)c1 [Compound 215, (4-(3,4-difluorophenyl)-1H-imidazol-1-yl)(thiazolidin-3-yl)methanone]	16.7 % of control
O=C(N1CCCC1)n1cnc(-c2ccc(Cl)c(Cl)c2)c1 [Compound 218, (4-(3,4-dichlorophenyl)-1H-imidazol-1-yl)(pyrrolidin-1-yl)methanone]	31.6 % of control
O=C(N1CCN(c2ccc(F)cc2)CC1)n1cnc(-c2ccc(Cl)cc2)c1 [Compound 223, (4-(4-chlorophenyl)-1H-imidazol-1-yl)(4-(4-fluorophenyl)piperazin-1-yl)methanone]	1.1 % of control
Br.CN(C(=O)n1cnc(-c2ccc(OCCN3CCCCC3)cc2)c1)c1ccccc1 [Compound 224, N-methyl-N-phenyl-4-(4-(2-(piperidin-1-yl)ethoxy)phenyl)-1H-imidazole-1-carboxamide hydrobromide]	90 % of control
COc1cc(-c2cn(C(=O)N3COCC3(C)C)cn2)ccc1OCc1ccccc1 [Compound 225, (4-(4-(benzyloxy)-3-methoxyphenyl)-1H-imidazol-1-yl)(4,4-dimethyloxazolidin-3-yl)methanone]	79 % of control
CC1OCCN1C(=O)n1cnc(-c2ccccc2)c1 (stereo not drawn) [Compound 227, (2-methyloxazolidin-3-yl)(4-phenyl-1H-imidazol-1-yl)methanone]	64.7 % of control
CN(C(=O)n1cnc(-c2ccccc2)c1)C12CC3CC(CC(C3)C1)C2 [Compound 229]	99.2 % of control
CN(C(=O)n1cnc(-c2ccc(OCCN3CCOCC3)cc2)c1)c1ccccc1.Cl [Compound 230, N-methyl-4-(4-(2-morpholinoethoxy)phenyl)-N-phenyl-1H-imidazole-1-carboxamide hydrochloride]	96.1 % of control
O=C(OCCN(C(=O)n1cnc(-c2ccccc2)c1)C1=CCCC1)n1cnc(-c2ccccc2)c1 [Compound 234, 2-(N-cyclopentenyl-4-phenyl-1H-imidazole-1-carboxamido)ethyl 4-phenyl-1H-imidazole-1-carboxylate]	78.2 % of control
O=C(NC12CC3CC(CC(C3)C1)C2)n1cnc(-c2ccccc2)c1 [Compound 237]	91.6 % of control
O=C(N1CCOC1c1ccccc1)n1cnc(-c2ccc(Cl)cc2)c1 (stereo not drawn) [Compound 241, (4-(4-chlorophenyl)-1H-imidazol-1-yl)(2-phenyloxazolidin-3-yl)methanone]	76.5 % of control
CN(C(=O)n1nnc2ccc(O)cc21)C1CCCCC1 [Compound 242, N-cyclohexyl-6-hydroxy-N-methyl-1H-benzo[d][1,2,3]triazole-1-carboxamide]	0 % of control
CC1(C)COCN1C(=O)n1nnc2cc(-c3cccc(C(N)=O)c3)ccc21 [Compound 243, 3-(1-(4,4-dimethyloxazolidine-3-carbonyl)-1H-benzo[d][1,2,3]triazol-5-yl)benzamide]	39.7 % of control
CN(C(=O)n1cnc(-c2ccc(Cl)cc2)c1)C1CCCC1 [Compound 244, 4-(4-chlorophenyl)-N-cyclopentyl-N-methyl-1H-imidazole-1-carboxamide]	5.4 % of control
CN(C(=O)n1cnc(-c2cccc(-c3cccc(F)c3)c2)c1)C1CCCCC1 [Compound 246, N-cyclohexyl-4-(3′-fluorobiphenyl-3-yl)-N-methyl-1H-imidazole-1-carboxamide]	2.9 % of control
